Counter-ions that a name gives are not always drawn.
How the values were obtained:
ALDH1A1 enzyme = molecular target: T1, ALDH1A1 enzyme (Homo sapiens, UniProt P00352); test: ALDH1A1 enzymatic assay (in vitro); format: biochemical; details: ALDH1A1 enzyme 20 nM, NAD+ 1 mM, propionaldehyde 80 μM; read-out: ALDH1A1 IC50
T1 sequence (P00352 1-501): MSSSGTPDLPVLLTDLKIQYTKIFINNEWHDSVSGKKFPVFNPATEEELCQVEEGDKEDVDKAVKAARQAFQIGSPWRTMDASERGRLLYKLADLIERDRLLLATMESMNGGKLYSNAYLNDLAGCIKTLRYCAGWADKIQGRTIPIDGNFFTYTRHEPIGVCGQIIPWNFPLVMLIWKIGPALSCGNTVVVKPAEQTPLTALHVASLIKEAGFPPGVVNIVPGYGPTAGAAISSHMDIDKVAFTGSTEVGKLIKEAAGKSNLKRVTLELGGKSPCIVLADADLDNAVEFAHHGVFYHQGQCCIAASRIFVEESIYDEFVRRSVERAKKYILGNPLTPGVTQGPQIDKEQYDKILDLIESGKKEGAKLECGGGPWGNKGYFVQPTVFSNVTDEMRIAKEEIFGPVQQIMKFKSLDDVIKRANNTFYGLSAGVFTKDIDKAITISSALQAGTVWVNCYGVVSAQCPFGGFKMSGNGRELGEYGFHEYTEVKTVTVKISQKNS
Method in brief: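 ALDH1A1 (20 nM final) in 100 mM HEPES pH 7.5, 0.01% Tween 20 was preincubated 15 min at RT with compound (968 pM–57.2 μM final), then started with 1 mM NAD+ and 80 μM propionaldehyde. NADH fluorescence (ex 340/em 450 nm) followed kinetically for 10 min; change normalized to no-inhibitor and no-enzyme controls for percent inhibition and curve fitting.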

MIA PaCa-2 cells = test: MIA PaCa2 cell-based assay (1,536-well high-content imaging ALDEFLUOR assay); parameters: species or system human; details: ALDEFLUOR BAAA substrate 500 nM, 30 minutes
Method in brief: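 MIA PaCa-2 cells (1,000/well), plated overnight, given BAAA substrate (500 nM) plus Hoechst 33342 (0.5 nM), then compound (16-point, 1.4 nM–47.8 μM final; 0.5% DMSO). After 30 min at 37° C, ALDH activity imaged by high-content microscopy as BAA-retaining (FITC) cells versus Hoechst-stained nuclei.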

| Compound | IC50 (ALDH1A1 enzyme) [µM] | IC50 (MIA PaCa-2 cells; Homo sapiens, 0.5 h) [µM] | IC50 (MIA PaCa-2 cells) [µM] |
| --- | --- | --- | --- |
| COc1ccc2ncc(C(=O)N3C[C@@H](C)O[C@@H](C)C3)c(N3CCC4(CC3)OCCO4)c2c1 [Example 33, ((2S*,6R*)-2,6-dimethylmorpholino)(6-methoxy-4-(1,4-dioxa-8-azaspiro[4.5]decan-8-yl)quinolin-3-yl)methanone] | 1 to 10 | > 10 | – |
| C[C@H]1CN(C(=O)C2CC2)CCN1C(=O)c1cnc2ccc(F)cc2c1N1CCC(C)(C#N)CC1 [Example 238, (s)-1-(3-(4-(cyclopropanecarbonyl)-2-methylpiperazine-1-carbonyl)-6-fluoroquinolin-4-yl)-4-methylpiperidine-4-carbonitrile] | 1 to 10 | > 10 | – |
| COc1ccc2ncc(C(=O)N3CCN(c4ccncc4)CC3)c(N3CCC4(CC3)OCCO4)c2c1 [Example 15, (6-methoxy-4-(1,4-dioxa-8-azaspiro[4.5]decan-8-yl)quinolin-3-yl)(4-(pyridin-4-yl)piperazin-1-yl)methanone, TFA] | 1 to 10 | > 10 | – |
| CCNC(=O)N1CCN(C(=O)c2cnc3cc(OC)ccc3c2N2CCC(C)(C#N)CC2)CC1 [Example 107, 4-(4-(4-cyano-4-methylpiperidin-1-yl)-7-methoxyquinoline-3-carbonyl)-N-ethylpiperazine-1-carboxamide] | < 0.5 | 1 to 10 | – |
| 4-(4-cyano-4-phenylpiperidin-1-yl)-6-fluoro-N-((1R,3R)-3-hydroxycyclobutyl)quinoline-3-carboxamide [Cpd. 330] | < 0.5 | – | < 0.5 |
| CC(C)NC(=O)N1CCN(C(=O)c2cnc3ccc(F)cc3c2N2CCC(C)(C#N)CC2)CC1 [Example 90, 4-(4-(4-cyano-4-methylpiperidin-1-yl)-6-fluoroquinoline-3-carbonyl)-N-isopropylpiperazine-1-carboxamide] | 1 to 10 | > 10 | – |
| CC(C)(O)C1(c2ccccc2)CCN(c2c(C(=O)N3CCN(S(C)(=O)=O)CC3)cnc3ccc(F)cc23)CC1 [Example 258, (6-fluoro-4-(4-(2-hydroxypropan-2-yl)-4-phenylpiperidin-1-yl)quinolin-3-yl)(4-(methylsulfonyl)piperazin-1-yl)methanone] | 0.5 to 1 | 1 to 10 | – |
| COc1c(F)cc2c(N3CCC(C)(C#N)CC3)c(C(=O)N3CCN(S(C)(=O)=O)CC3)cnc2c1F [Example 137, 1-(6,8-difluoro-7-methoxy-3-(4-(methylsulfonyl)piperazine-1-carbonyl)quinolin-4-yl)-4-methylpiperidine-4-carbonitrile] | < 0.5 | 0.5 to 1 | – |

Continued, values first:

| IC50 (ALDH1A1 enzyme) [µM] | IC50 (MIA PaCa-2 cells; Homo sapiens, 0.5 h) [µM] | IC50 (MIA PaCa-2 cells) [µM] | Compound |
| --- | --- | --- | --- |
| < 0.5 | 1 to 10 | – | CCNC(=O)N1CCN(C(=O)c2cnc3c(F)c(OC)c(F)cc3c2N2CCC(C)(C#N)CC2)CC1 [Example 147, 4-(4-(4-cyano-4-methylpiperidin-1-yl)-6,8-difluoro-7-methoxyquinoline-3-carbonyl)-N-ethylpiperazine-1-carboxamide] |
| < 0.5 | 1 to 10 | – | CS(=O)(=O)N1CCN(C(=O)c2cnc3cc(F)c(F)cc3c2N2CCC3(CC2)OCCO3)CC1 [Example 132, (6,7-difluoro-4-(1,4-dioxa-8-azaspiro[4.5]decan-8-yl)quinolin-3-yl)(4-(methylsulfonyl)piperazin-1-yl)methanone] |
| < 0.5 | 0.5 to 1 | – | N#CC1(O)CCN(C(=O)c2cnc3ccc(F)cc3c2N2CCC(C#N)(c3ccccc3)CC2)CC1 [Cpd. 341, 1-(3-(4-cyano-4-hydroxypiperidine-1-carbonyl)-6-fluoroquinolin-4-yl)-4-phenylpiperidine-4-carbonitrile] |
| < 0.5 | 1 to 10 | – | COc1ccc2ncc(C(=O)N3CCN(C(=O)C4CC4)CC3)c(N3CCC(C)(C#N)CC3)c2c1 [Example 27, 1-(3-(4-(cyclopropanecarbonyl)piperazine-1-carbonyl)-6-methoxyquinolin-4-yl)-4-methylpiperidine-4-carbonitrile] |

Reference: patent publication US11795177B2, “Substituted quinoline analogs as aldehyde dehydrogenase 1A1 (ALDH1A1) inhibitors” (THE UNITED STATES OF AMERICA, AS REPRESENTED BY THE …, priority 2017, dated 2023)
